No end group written: not given here.
Assays:
mouse IL-4 = test: PT-18 proliferation assay (WST-1), IL-4; format: cell-based; settings: murine PT-18 cells, mouse IL-4, BNZ132-1 50 nM, 500 nM, 5 μM
Description: FIG. 6A-FIG. 6E presents inhibitory spectrum of BNZ132-1 over γc- and non-γc-cytokines. […] Neutralizing antibodies against each cytokine (R & D systems, 5 μg ml^−1) were included as controls. After 20 h, the cells were pulsed with WST-1 (Clontech) and OD450 of each well was measured after 6 h. A 19-mer scrambled peptide was used as a negative control at 5 μM. The experiments were conducted in triplicate (applies to all experiments in FIG. 6A-FIG. 6E). The result represents one of at least three independent experiments (applies to all experiments in FIG. 6A-FIG. 6E). […] In PT-18 proliferation assay, PT-18β or PT-18h21Rα cells were withdrawn of mouse IL-3 for 12 h before the experiment. Cells were then incubated with 1 nM of mouse IL-4, mouse IL-9, or mouse IL-21 in the presence or absence of the indicated doses (μM) of BNZ132-1. Neutralizing antibodies to each cytokine (5 μg ml^−1, except for anti-mouse IL-21 polyclonal antibody which was used at 15 μg ml−1) and a scrambled control peptide (5 μM) were included as negative controls. WST-1 assay was conducted as described above. […] In PT-18 h21Rα survival assay, PT-18h21Rα cells are described in the text. […] Both parental and hIL-21Rα positive PT-18 cells were washed and incubated without IL-3 for 12 h before the assay. […] The Y-axis represents the cpm (count per minute) values measured by a β-counter. […]

IL-2, -15 and -9 = test: Inhibition of IL-2, -15 and -9 in human NK92 cell line and ex vivo human T cells; format: cell-based
Description: Human peripheral blood mononuclear cells were purified by the Ficoll-paque gradient centrifugation (GE-Healthcare) and stimulated by PHA (5 μg ml^−1, Sigma) for 48 h, then expanded with IL-2 (0.5 nM, Peprotech) for 48h, and then depleted of non-T cells by the Pan-T cell negative enrichment Ab cocktails (Miltenyi). The purified T cells were then fasted of IL-2 overnight prior to the proliferation assay by the tetrazolium dye method. Four hundred thousand cells (in 200 μl culture) were incubated with the cytokines and BNZ132-1 at the indicated concentrations for 24 h, and 20 μl WST1 reagent (Clontech) was added to each well. After 12 h incubation, OD450 was measured. The assay was performed in triplicate. […] NK 92 cells were cultured in human IL-2. Cells were washed to withdraw IL-2 for overnight and two hundred thousand cells (in 200 μl volume) were incubated with the indicated concentrations of the cytokine and BNZ132-1 for 24 h before 20 μl WST-1 reagent (Clontech) was added to each well to measure proliferative response. Absorbance at 450 nm was read at 6 h after the addition of the WST-1 dye. The assay was performed in triplicate. The assay was performed in triplicate and the figure represents a typical result out of 5 different HAM-TSP patients.
Next, the biochemical aspects of the BNZ132-1 inhibition of target cytokines were investigated. […]

IC50 (IL-2, -15 and -9; human NK92 cell line and ex vivo human T cells, read-out: concentration at which IL-2, -15 and -9 are inhibited): 50 to 150 nM
Sequence: IKEFLQRFIHIVQSIINTS [BNZ132-1]
inhibition of IL-4-induced proliferation of PT-18 cells (mouse IL-4): did not inhibit
Ki (IL-2, -15 and -9; approximate, from the inhibitory concentrations (Cheng-Prusoff), read-out: binding affinity of BNZ132-1 to target cells): 10 to 60 nM
